Experimental data published in patent US5164381A, “Pharmacologically active 1,5-diaryl-3-substituted pyrazoles and method for synthesizing the same” (Ortho Pharmaceutical Corporation, priority 1991, dated 1992).
Counter-ions that a name gives are not always drawn.

These molecules were tested on Lewis strain laboratory rats (assay: In vivo alleviation of inflammation: polyarthritis (adjuvant, Mycobacterium butyricum) in rats, inhibition of paw volume increase). Details: Rattus norvegicus, po, rat; read-out: ED50 (effective dose to obtain a 50% inhibition of inflammation).
Experimental: Polyarthritis was induced in Lewis strain laboratory rats (weight=about 200 grams) by injection of a suspension of Mycobacterium butyricum in mineral oil into the subplantar tissue of the mammal's hind paws. On day 10 after the injection, the rats were assigned to groups, and paw volumes and body weights were recorded. Paw volumes of the contralateral, uninjected hind paw were determined by mercury plethylsmography. Per oral (p.o.) dosing began and continued for five consecutive days thereafter. On day 14 after the initial injection, approximately four hours after the final dose was administered, paw volumes and body weights were recorded and quantitated.
Anti-inflammatory activity of the substituted pyrazole compounds is expressed as the percent inhibition of paw volume increase.

In order of rising ED50:
1. COc1ccc(-n2nc(CCC=O)cc2-c2ccc(Cl)cc2)cc1 [Compound 11, 3-[5-(4-Chlorophenyl)-1-(4-methoxyphenyl)-3-pyrazolyl] propanal]  2.6 mg/kg
2. COc1ccc(-n2nc(CCC(=O)N(C)O)cc2-c2ccc(C(F)(F)F)cc2)cc1 [Compound 79]  3.2 mg/kg
3. COc1ccc(-n2nc(CCC(=O)N(C)OC(=O)CCC(=O)O)cc2-c2ccc(C)cc2)cc1 [Compound 130]  11.5 mg/kg

Same assay, conditions: p.o., rat

For COc1ccc(-n2nc(CCC(=O)O)cc2-c2ccc(Cl)cc2)cc1 [Compound 12, 3-[5-(4-Chlorophenyl)-1-(4-methoxyphenyl)-3-pyrazolyl] propionic acid], the “ED50 (effective dose to obtain a 50% inhibition of inflammation)” value was 5.2 mpk.

Same assay, conditions: p.o., rat; monohydrate

In the case of COc1ccc(-n2nc(CCC(=O)O)cc2-c2ccc(Cl)cc2)cc1 [Compound 13, Sodium 3-[5-(4-chlorophenyl)-1-(4-methoxyphenyl)-3-pyrazoyl] propanoate monohydrate], the “ED50 (effective dose to obtain a 50% inhibition of inflammation)” value is reported as 1.8 mpk.

Same assay, conditions: po, 336 h; 10 mpk p.o., rat; read-out: % INH. p.o. (percentage inhibition of pad swelling)

In order of falling inhibition in vivo at 10 mg/kg:
1. COc1ccc(-n2nc(CCC(=O)N(C)O)cc2-c2ccc(Cl)cc2)cc1 [Compound 3a, 3-[5-(4-Chlorophenyl)-1-(4-methoxyphenyl)-3-pyrazolyl] -N-hydroxy-N-methylpropanamide sodium salt monohydrate]  65%
2. COc1ccc(-n2nc(CCC(=O)N(O)C(C)=O)cc2-c2ccc(Cl)cc2)cc1 [Compound 171, N-Acetyl-3-[5-(4-chlorophenyl)-1-(4-methoxyphenyl)-3-pyrazolyl]-N-hydroxy-propanamide]  62%
3. COc1ccc(-n2nc(CCC(=O)N(O)C(C)C(=O)O)cc2-c2ccc(Cl)cc2)cc1 (centres unmarked) [Compound 145]  61%
4. CCOC(=O)C(C)N(O)C(=O)CCc1cc(-c2ccc(Cl)cc2)n(-c2ccc(OC)cc2)n1 (centres unmarked) [Compound 144]  55%
5. CCOC(=O)C(=O)N(O)CCCc1cc(-c2ccc(Cl)cc2)n(-c2ccc(OC)cc2)n1 [Compound 157, Ethyl N-[3-[5-(4-chlorophenyl)-1-(4-methoxyphenyl)-3-pyrazolyl]-propyl]-hydroxyoxamate]  51%
6. COc1ccc(-n2nc(CCCN(O)C(=O)C(C)(C)C)cc2-c2ccc(Cl)cc2)cc1 [Compound 153]  49%
7. COc1ccc(-n2nc(CCC(=O)N(C)OC(=O)CCC(=O)N3CCOCC3)cc2-c2ccc(Cl)cc2)cc1 [Compound 136]  38%
8. COc1ccc(-n2nc(CCC(=O)N(C)OC(=O)CCCC(=O)O)cc2-c2ccc(Cl)cc2)cc1 [Compound 132]  30%
9. CCCCCCCCN(O)C(=O)CCc1cc(-c2ccc(Cl)cc2)n(-c2ccc(OC)cc2)n1 [Compound 146]  29%
10. COc1ccc(-n2nc(CCC(=O)N(C)O)cc2-c2ccccc2C)cc1 [Compound 118]  6%

Same assay, conditions: po, 336 h; 15 mpk p.o., rat; read-out: % INH. p.o. (percentage inhibition of pad swelling)

In order of falling inhibition in vivo at 15 mg/kg:
1. COc1ccc(-n2nc(CCC(=O)N(OC(C)=O)C(C)=O)cc2-c2ccc(Cl)cc2)cc1 [Compound 172, N-Acetyl-N-acetoxy-[5-(4-chlorophenyl)-1-(4-methoxyphenyl)-3-pyrazolyl]-propanamide]  83%
2. COc1ccc(-n2nc(CCC(=O)O)c(Br)c2-c2ccc(Cl)cc2)cc1 [Compound 147, 3-[4-Bromo-5-(4-Chlorophenyl)-1-(4-methoxyphenyl)-3-pyrazolyl]-propionic acid]  79%
3. COc1ccc(-n2nc(CCC(=O)N(C)OC(C)=O)cc2-c2ccc(Cl)cc2)cc1 [Compound 140]  77%
4. CCOc1ccc(-n2nc(CCC(=O)O)cc2-c2ccc(Cl)cc2)cc1 [Compound 72]  71%
5. COc1ccc(-n2nc(CCC(=O)N(C)O)c(Cl)c2-c2ccc(Cl)cc2)cc1 [Compound 149]  68%
6. COc1ccc(-n2nc(CCC(=O)N(O)C(C)C)cc2-c2ccc(Cl)cc2)cc1 [Compound 81, 3-[5-(4-chlorophenyl)-1-(4-methoxyphenyl)-3-pyrazolyl]-N-hydroxy-N-isopropylpropanamide]  50%
7. CCOc1ccc(-n2nc(CCC(=O)N(C)O)cc2-c2ccc(Cl)cc2)cc1 [Compound 76]  43%
8. CCN(O)C(=O)CCc1cc(-c2ccc(Cl)cc2)n(-c2ccc(OC)cc2)n1 [Compound 83, 3-[5-(4-chlorophenyl)-1-(4-methoxyphenyl)-3-pyrazolyl]-N-ethyl-N-hydroxypropanamide]  42%
9. COc1ccc(-n2nc(CCNC(=O)C(=O)NO)cc2-c2ccc(Cl)cc2)cc1 [Compound 165]  41%
10. CCC(=O)CCc1cc(-c2ccc(Cl)cc2)n(-c2ccc(OC)cc2)n1 [Compound 180]  32%
11. COc1ccc(-n2nc(CCC(=O)Nc3nnn[nH]3)cc2-c2ccc(Cl)cc2)cc1 [Compound 90]  32%
12. COc1ccc(-n2nc(CCC(=O)c3ccccc3)cc2-c2ccc(Cl)cc2)cc1 [Compound 181]  30%
13. Nc1ccc(-n2nc(CCCO)cc2-c2ccc(Cl)cc2)cc1 [Compound 69]  17%
14. CCOC(=O)C(=O)NCCc1cc(-c2ccc(Cl)cc2)n(-c2ccc(OC)cc2)n1 [Compound 160, Ethyl 2-[5-(4-chlorophenyl)-1-(4-methoxyphenyl)-3-pyrazolyl]-ethylamine-N-oxoacetate]  9%
15. COc1ccc(-n2nc(CCC(=NNc3nccs3)c3ccccc3)cc2-c2ccc(Cl)cc2)cc1 [Compound 176]  6%
16. COc1ccc(-n2nc(CCC(=O)N(C)O)cc2-c2ccccc2)cc1 [Compound 114]  5%

Same assay, conditions: po, 336 h; 20 mpk p.o., rat; read-out: % INH. p.o. (percentage inhibition of pad swelling)

In the case of COc1ccc(-n2nc(CCCOC(=O)CC(C)=O)cc2-c2ccc(Cl)cc2)cc1 [Compound 59, 3-(3-Acetoacetoxypropyl)-5-(4-chlorophenyl)-1-(4-methoxyphenyl) pyrazole], the inhibition in vivo at 20 mg/kg is reported as 48%.

Same assay, conditions: po, 336 h; 25 mpk p.o., rat; read-out: % INH. p.o. (percentage inhibition of pad swelling)

In order of rising inhibition in vivo at 25 mg/kg:
1. OCCCc1cc(-c2ccc(Cl)cc2)n(-c2ccccc2C(F)(F)F)n1 [Compound 60]  8%
2. COc1ccc(-n2nc(CCC(=O)Nc3ccc(O)cc3)cc2-c2ccc(Cl)cc2)cc1 [Compound 34]  21%
3. COc1ccc(-n2nc(CCCO)cc2-c2ccc(-c3ccccc3)cc2)cc1 [Compound 54]  36%
4. Cc1ccc(-n2nc(CCCO)cc2-c2ccc(Cl)cc2)cc1 [Compound 37]  41%
5. CCN(CC)C(=O)CCc1cc(-c2ccc(Cl)cc2)n(-c2ccc(OC)cc2)n1 [Compound 28, 3-[5-(4-Chlorophenyl)-1-(4-methoxyphenyl)-3-pyrazolyl]-N,N-diethylpropanamide]  44%
6. COc1ccc(-n2nc(CCC(=O)N(O)C(C)(C)C)cc2-c2ccc(Cl)cc2)cc1 [Compound 58, 3-[5-(4-chlorophenyl)-1-(4-methoxyphenyl)-3-pyrazolyl]-N-tert-butyl-N-hydroxypropanamide]  47%
7. COc1ccc(-n2nc(CCC(=O)NCC(=O)O)cc2-c2ccc(Cl)cc2)cc1 [Compound 66, N-Carboxymethyl-3-[5-(4-chlorophenyl)-1-(4-methoxyphenyl)-3-pyrazolyl]propanamide]  62%
8. COc1ccc(-n2nc(CCC(N)=O)cc2-c2ccc(Cl)cc2)cc1 [Compound 31]  75%
9. COc1ccc(-n2nc(CCC=NO)cc2-c2ccc(Cl)cc2)cc1 [Compound 26, 5-(4-Chlorophenyl)-3-(3-oximinopropyl)-1-(4-methoxyphenyl) pyrazole]  79%
10. COc1ccc(-n2nc(CCCOC(=O)CCc3cc(-c4ccc(Cl)cc4)n(-c4ccc(OC)cc4)n3)cc2-c2ccc(Cl)cc2)cc1 [Compound 16, 3-[5-(4-Chlorophenyl)-1-(4-methoxyphenyl)-3-pyrazolyl] propyl 3-[5-(4-Chlorophenyl)-1-(4-methoxyphenyl)-3-pyrazolyl] propionate]  82%
11. COc1ccc(-n2nc(CCC(=O)NO)cc2-c2ccc(Cl)cc2)cc1 [Compound 29, 3-[5-(4-Chlorophenyl)-1-(4-methoxyphenyl)-3-pyrazolyl]-N-hydroxypropanamide]  91%

Same assay, conditions: po, 336 h; 30 mpk p.o., rat; read-out: % INH. p.o. (percentage inhibition of pad swelling)

COc1ccc(-n2nc(CCCN)cc2-c2ccc(Cl)cc2)cc1 [Compound 96, 3-[5-(4-Chlorophenyl)-1-(4-methoxyphenyl)-3-pyrazolyl]propylamine] showed an inhibition in vivo at 30 mg/kg of 56%.

Same assay, conditions: po, 336 h; 40 mpk p.o., rat; read-out: % INH. p.o. (percentage inhibition of pad swelling)

In order of rising inhibition in vivo at 40 mg/kg:
1. COc1ccc(-n2nc(CCC(=O)N(C)O)c(Br)c2-c2ccc(Cl)cc2)cc1 [Compound 148]  15%
2. COc1ccc(-n2nc(CCC(=O)O)cc2-c2ccc(Cl)cc2)cc1OC [Compound 74]  17%
3. COc1ccc(-n2nc(CCC(=O)N(O)c3ccccc3)cc2-c2ccc(Cl)cc2)cc1 [Compound 84, 3-[5-(4-chlorophenyl)-1-(4-methoxyphenyl)-3-pyrazolyl]-N-hydroxy-N-phenylpropanamide]  27%

Same assay, conditions: po, 336 h; 50 mpk p.o., rat; read-out: % INH. p.o. (percentage inhibition of pad swelling)

In order of falling inhibition in vivo at 50 mg/kg:
1. OCCCc1cc(-c2ccc(Cl)cc2)n(-c2ccc(Cl)cc2)n1 [Compound 4]  68%
2. CC(=O)OCCCc1cc(-c2ccc(Cl)cc2)n(-c2ccccc2)n1 [Compound 7, 3-(3-Acetoxypropyl)-5-(4-chlorophenyl)-1-phenylpyrazole]  54%
3. OCCCc1cc(-c2ccccc2)n(-c2ccc(Cl)cc2)n1 [Compound 21]  52%
